Several values for one entry are separate records, joined by “and”; a condition that tells them apart may be missing. Identical values can stand only once.
Test: SABRE-SHEATH hyperpolarization, 13C polarization quantified at 1.4 T benchtop NMR
Type: physicochemical
Experimental: A previously reported setup and experimental protocol has been used to prepare high P13C of up to ≈14.5% of 30 mM [1-^13C]pyruvate in methanol, which was confirmed after transferring the HP samples from the polarizer into a 1.4 T benchtop ^1H/^13C NMR system. The mean of N=19 experiments from 9 samples measured on 5 different days under the same conditions was 8±2%. […] These hyperpolarization values correspond to ^13C enhancement ε13C of ≈75,000-fold. The optimal experimental parameters are obtained via sweeping the static magnetic field (optimum transfer field BT≈0.4 μT) and temperature (TT≈10° C.) using a p-H2 flow rate of 75 standard cubic centimeters per minute (scc/m), and ≈7 bar total pressure, FIGS. 4A-4B, respectively.
CD3OD is widely used as the SABRE-reaction-hosting solvent because it provides convenient means of attaining high-field NMR spectrometer lock. However, non-deuterated polarization media may be preferred for biomedical applications. For this reason, systematic relaxation dynamics studies were performed comparing CD3OD, CH3OH, and C2H5OH for SABRE-SHEATH [1-^13C]pyruvate hyperpolarization, investigating relevant parameters for these solvents and for fixed concentrations of pyruvate, SABRE catalyst, and DMSO (30 mM, 6 mM, and 40 mM, respectively). However, the ethanol sample was prepared with only 6 mM pyruvate and 10% H2O due to limited solubility. The optimal Br was similar in all investigated samples (≈0.4 μT, FIG. 4A). […] (FIG. 4B). Thus, all the experiments described below were performed using these optimized Br and Tr parameters.
Preparation of samples: Parahydrogen was enriched to >99.10% and filled into aluminum cylinders at 350 psi using a setup described previously. The SABRE samples were prepared in CD3OD (CAS: DLM-24-25), CH3OH (CAS: 67-56-1), or ethanol (CAS: 64-17-5) using the stated concentration of sodium pyruvate (in most cases 30 mM, natural abundance—CAS: 113-24-6; [1-^13C]-labeled—CAS: 490709-250 MG), an iridium catalyst at 6 mM concentration synthesized as described previously, doped with 40 mM dimethyl sulfoxide (DMSO) to block one active center of the catalyst and to avoid pyruvate from binding to the catalyst at two sites. Oxygen was removed from the samples by guiding argon gas at approximately ambient pressure through the samples for ˜1 min. Also, oxygen was removed from all solvents used for the preparation of the samples (methanol or ethanol) or for the precipitation of pyruvate (ethyl acetate (EtAc), room temperature, CAS: 141-78-6) prior to mixing them to the catalyst substrate solutions. For the SABRE experiments, the samples were filled into medium wall, or in case of precipitation studies, into regular wall NMR tubes (SKU: WG-1000-8, outer diameter 5 mm, inner diameter 4 mm and length 8 inches). Note that the total volume of the catalyst-substrate sample was 600 μL (in the baseline and solvent study) or 100 μL in experiments were precipitation and phase separation were performed. In case of dissolution SABRE, 300 μL of room-temperature H2O (HPLC grade-submicron filtered) or D2O (CAS: 7789-20-0) were added.
SABRE hyperpolarization setup: The experimental setup has been used previously but will be described in much greater detail elsewhere. Briefly, it consisted of a 3-layer mu-metal of 3″ I.D. and 9″ DEPTH to shield external magnetic fields (Magnetic Shield Corporation, ZG-203), combined with a custom-made solenoid to generate a static magnetic field, B0, of ˜300 nT (28 AWG wire, 650 windings, 7″ homogeneous length). Note that this coil provided a constant magnetic field here (5 VDC power supply connected to the solenoid via a resistor board to regulate the current and effectively set the magnetic field). […]

CC(=O)[13C](=O)O [[1-^13C]pyruvate]
fold lower P13C compared to CH3OH and CD3OD (6 mM in 90% C2H5OH + 10% H2O): 1.4 fold | P13C (30 mM in CD3OD, representative polarization build-up at 0.4 μT): 8.5±0.1% | P13C (30 mM in CH3OH, representative polarization build-up at 0.4 μT): 7.8±0.1% | P13C, mean (30 mM in methanol, N=19 experiments from 9 samples on 5 days, inter-day mean with s.d.): 8±2% | P13C, maximum (30 mM in methanol, SABRE-SHEATH, detected at 1.4 T): ≈ 14.5% and 14.5% | P13C (60 mM in CH3OH, 6 mM catalyst, p-H2 80 scc/m): 3.7±0.06% | P13C, mean base-line before precipitation (in CH3OH, batch used for filtering tests): 10±1% | 13C enhancement ε13C (in methanol, vs thermal polarization at 1.4 T): ≈ 75,000 fold

— patent publication US20260048155A1, “BIOCOMPATIBLE PARAHYDROGEN HYPERPOLARIZED SOLUTIONS BY PRECIPITATION AND RE-DISSOLUTION” (North Carolina State University, priority 2022, published 2026)
